Measured values taken from patent US5892041A, “Fused indolecarboxamides: dopamine receptor subtype specific ligands” (Neurogen Corporation, priority 1996, dated 1999).
Where a name gives a salt, the structure may show the parent alone.

How the values were obtained:
D2 receptors = biological target: T1, D2 receptors (Chlorocebus aethiops, UniProt P52702); experiment: D2 receptor binding ([3H]YM 09151-2 displacement, COS cell pellets with recombinant receptor); set-up: species or system African Green monkey; settings: 0.5 nM 3H-YM 09151-2; recombinant receptor in COS cells; nonspecific with 1 mM spiperone; text also says rat striatal homogenates
T1 construct: 3H-YM 09151-2 displacement
T1 sequence (P52702 whole entry): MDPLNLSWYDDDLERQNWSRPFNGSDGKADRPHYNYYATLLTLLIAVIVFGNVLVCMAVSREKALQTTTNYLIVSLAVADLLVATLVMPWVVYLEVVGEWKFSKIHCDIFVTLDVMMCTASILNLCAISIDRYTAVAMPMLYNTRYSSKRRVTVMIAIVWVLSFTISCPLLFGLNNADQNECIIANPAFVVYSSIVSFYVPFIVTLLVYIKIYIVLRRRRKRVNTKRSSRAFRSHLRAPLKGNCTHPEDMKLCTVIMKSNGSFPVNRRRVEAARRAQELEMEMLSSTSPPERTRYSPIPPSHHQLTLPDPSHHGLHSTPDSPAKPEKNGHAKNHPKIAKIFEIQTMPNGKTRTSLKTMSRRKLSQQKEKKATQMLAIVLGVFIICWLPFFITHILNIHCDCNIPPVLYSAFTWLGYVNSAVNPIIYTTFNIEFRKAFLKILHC
Method: (§1) Pellets of COS cells containing recombinantly produced D2 or D3 receptors from African Green monkey were used for the assays. The sample is homogenized in 100 volumes (w/vol) of 0.05M Tris HCl buffer at 4° C. and pH 7.4. The sample is then centrifuged at 30,000×g and resuspended and rehomogenized. The sample is then centrifuged as described and the final tissue sample is frozen until use. The tissue is resuspended 1:20 (wt/vol) in 0.05M Tris HCl buffer containing 100 mM NaCl.
(§2) Incubations are carried out at 48° C. and contain 0.4 ml of tissue sample, 0.5 nM ^3 H-YM 09151-2 and the compound of interest in a total incubation of 1.0 ml. Nonspecific binding is defined as that binding found in the presence of […] spiperone; without further additions, nonspecific binding is less than 20% of total binding. The binding characteristics of representative compounds of the invention for D2 and D3 receptor subtypes are shown in Table 2 for rat striatal homogenates.

D3 receptors = biological target: T2, D3 receptors (Chlorocebus aethiops, UniProt P52703); experiment: D3 receptor binding ([3H]YM 09151-2 displacement, COS cell pellets with recombinant receptor); set-up: species or system African Green monkey; settings: 0.5 nM 3H-YM 09151-2; recombinant receptor in COS cells; nonspecific with 1 mM spiperone; text also says rat striatal homogenates
T2 construct: expressed in transfected cells; host or cells: COS cells
T2 sequence (P52703 whole entry): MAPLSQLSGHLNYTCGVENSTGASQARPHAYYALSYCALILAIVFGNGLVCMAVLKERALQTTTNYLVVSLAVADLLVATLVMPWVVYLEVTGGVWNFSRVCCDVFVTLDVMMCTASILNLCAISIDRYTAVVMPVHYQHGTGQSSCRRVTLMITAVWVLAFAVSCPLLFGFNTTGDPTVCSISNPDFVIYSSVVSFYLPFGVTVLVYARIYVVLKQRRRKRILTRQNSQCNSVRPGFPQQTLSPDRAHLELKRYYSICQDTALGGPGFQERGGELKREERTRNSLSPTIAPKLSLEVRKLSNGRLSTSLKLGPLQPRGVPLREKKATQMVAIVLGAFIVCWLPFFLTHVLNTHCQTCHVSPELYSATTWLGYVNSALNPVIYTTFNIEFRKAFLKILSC
Method: as §1, §2

Row | Compound | Ki (D2 receptors) [nM] | Ki (D3 receptors) [nM]
1 | O=C(NCCCCN1CCN(c2cccc(Cl)c2Cl)CC1)c1ccc2[nH]c3c(c2c1)CCCC3 [Compound 1, N-(1-{4-[4-(2,3-dichlorophenyl)piperazine-1-yl]}butyl)-1,2,3 4-tetrahydrocarbazole-6-carboxamide hydrochloride] | 250 | 0.5
2 | Cn1c2ccccc2c2cc(C(=O)NCCCCN3CCN(c4cccc(Cl)c4Cl)CC3)ccc21 [Compound 3, N-(1-{4-[4-(2,3-dichlorophenyl)piperazine-1-yl]}butyl)-9-methylcarbazole-3-carboxamide hydrochloride] | 540 | 2
3 | O=C(NCCCCN1CCN(c2cccc(Cl)c2Cl)CC1)c1ccc2c(c1)[nH]c1ccccc12 [Compound 4, N-(1-{4-[4-(2,3-dichlorophenyl)piperazine-1-yl]}butyl)-9H-carbazole-2-carboxamide hydrochloride] | 750 | 1
